Data from ChEMBL document CHEMBL1821572, “Discovery of a novel series of selective HCN1 blockers” (Bioorg Med Chem Lett, 2011).

Target: T1, Potassium/sodium hyperpolarization-activated cyclic nucleotide-gated channel 4 (Homo sapiens, UniProt Q9Y3Q4)
T1 sequence (Q9Y3Q4 whole entry): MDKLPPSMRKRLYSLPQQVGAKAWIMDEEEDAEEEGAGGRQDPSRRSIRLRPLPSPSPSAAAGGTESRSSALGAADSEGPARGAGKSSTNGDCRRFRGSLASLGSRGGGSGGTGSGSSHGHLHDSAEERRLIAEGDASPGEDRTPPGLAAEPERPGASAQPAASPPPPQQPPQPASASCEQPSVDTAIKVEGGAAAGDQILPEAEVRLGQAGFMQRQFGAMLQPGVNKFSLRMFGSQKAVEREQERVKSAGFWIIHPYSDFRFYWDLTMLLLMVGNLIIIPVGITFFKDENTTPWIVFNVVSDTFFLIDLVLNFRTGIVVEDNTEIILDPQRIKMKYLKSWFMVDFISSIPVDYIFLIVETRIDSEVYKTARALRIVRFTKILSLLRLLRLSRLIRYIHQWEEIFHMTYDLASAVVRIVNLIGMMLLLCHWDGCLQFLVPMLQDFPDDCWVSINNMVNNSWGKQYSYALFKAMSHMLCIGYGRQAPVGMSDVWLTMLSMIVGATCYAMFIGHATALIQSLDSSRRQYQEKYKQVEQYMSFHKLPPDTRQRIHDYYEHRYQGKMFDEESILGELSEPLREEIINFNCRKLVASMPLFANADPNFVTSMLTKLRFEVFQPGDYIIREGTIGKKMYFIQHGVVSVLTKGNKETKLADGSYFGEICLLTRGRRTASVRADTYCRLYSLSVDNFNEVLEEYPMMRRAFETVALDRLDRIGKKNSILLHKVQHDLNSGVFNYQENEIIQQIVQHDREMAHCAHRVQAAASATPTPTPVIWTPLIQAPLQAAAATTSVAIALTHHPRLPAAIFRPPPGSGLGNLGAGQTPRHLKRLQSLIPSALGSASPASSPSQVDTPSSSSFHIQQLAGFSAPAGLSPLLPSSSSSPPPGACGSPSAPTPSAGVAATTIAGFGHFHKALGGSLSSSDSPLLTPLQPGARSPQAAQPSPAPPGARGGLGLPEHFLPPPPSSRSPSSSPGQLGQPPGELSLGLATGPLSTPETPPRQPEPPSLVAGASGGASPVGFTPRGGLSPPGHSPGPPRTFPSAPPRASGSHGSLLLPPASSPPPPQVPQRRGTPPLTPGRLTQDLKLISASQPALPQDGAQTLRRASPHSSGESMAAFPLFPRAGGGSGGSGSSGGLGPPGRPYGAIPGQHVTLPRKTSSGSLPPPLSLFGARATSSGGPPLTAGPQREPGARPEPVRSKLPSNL
Experiment: Inhibition of human HCN4 heterologously expressed in HEK-293 cells after 30 mins by VIPR assay
Type: cell-based, HEK293

CCOc1ccccc1C(=O)NCC1(N2CCNCC2)CCCCC1
IC50: 3.98 µM
